Where “and” joins values, the source holds several entries; their conditions need not be identical. Equal entries are not always repeated. Toxic doses and inconclusive results are not listed.

The text below walks through data of PubChem BioAssay AID248 (DTP/NCI, 2004).

The test system of the assay is L1210 leukemia ip in BDF1 mice, survival T/C. The experiment in a line: NCI In Vivo Anticancer Drug Screen. Data for tumor model L1210 Leukemia (intraperitoneal) in B6D2F1 (BDF1) mice. The settings on record: endpoint: mean survival time, higher = longer survival. Summed up: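 In this screen, tumor-bearing mice given compound are compared to those given vehicle, and their survival values are reported as a treated-to-control quotient.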

Where [1] appears, read: dose: 100.0 mg/kg/injection, schedule: Q01DX001 (ip), vehicle: Klucel (hydroxypropylcellulose) (HPC).

As to `CCCC/C=C1\CCCC(C)C1` (stereo not given), the T/C is 101 % of control (dose: 100.0 mg/kg/injection, schedule: Q04DX002 (ip), vehicle: saline); 101 % of control (dose: 200.0 mg/kg/injection, schedule: Q04DX002 (ip), vehicle: saline); 97 % of control (dose: 400.0 mg/kg/injection, schedule: Q04DX002 (ip), vehicle: saline).
Take `COc1ccc(NC(=O)OCCN(CCOC(=O)Nc2ccc(OC)cc2)c2cccc(C)c2)cc1`: the T/C (dose: 100.0 mg/kg/injection, schedule: Q01DX001 (ip), vehicle: saline) is 100 % of control; the T/C (dose: 200.0 mg/kg/injection, schedule: Q01DX001 (ip), vehicle: saline) is 90 % of control; the T/C (dose: 400.0 mg/kg/injection, schedule: Q01DX001 (ip), vehicle: saline) was 90 % of control.
For the molecule `C1CCC2=NCCCN2CC1`, the T/C was 101 % of control (dose: 5.0 mg/kg/injection, schedule: Q01DX001 (ip), vehicle: saline); 101 % of control (dose: 10.0 mg/kg/injection, schedule: Q01DX001 (ip), vehicle: saline); 103 % of control (dose: 20.0 mg/kg/injection, schedule: Q01DX001 (ip), vehicle: saline); 97 % of control (dose: 40.0 mg/kg/injection, schedule: Q01DX001 (ip), vehicle: saline).
With `CCN(CC)CCn1c(CC23CC4CC(CC(C4)C2)C3)nc2cc([N+](=O)[O-])ccc21`, the T/C was 90 % of control under setting [1] and 98 % of control (dose: 200.0 mg/kg/injection, schedule: Q01DX001 (ip), vehicle: Klucel (hydroxypropylcellulose) (HPC)).
In the case of `O=c1c2ccccc2oc2ccccc12`, the T/C reads like this: (dose: 100.0 mg/kg/injection, schedule: Q01DX001 (ip), vehicle: saline with Tween-80) 102 % of control; (dose: 100.0 mg/kg/injection, schedule: Q04DX003 (ip), vehicle: saline with Tween-80) 96 % of control; (dose: 200.0 mg/kg/injection, schedule: Q01DX001 (ip), vehicle: saline with Tween-80) 102 % of control; (dose: 200.0 mg/kg/injection, schedule: Q04DX003 (ip), vehicle: saline with Tween-80) 97 % of control; (dose: 400.0 mg/kg/injection, schedule: Q01DX001 (ip), vehicle: saline with Tween-80) 102 % of control.
Consider `O=C(CCl)NC1=C(Cl)C(=O)c2ccccc2C1=O`, for which the T/C (dose: 75.0 mg/kg/injection, schedule: Q01DX001 (ip), vehicle: saline) was 93 % of control.
Regarding `Cc1ccc(NP(Br)(c2ccccc2)(c2ccccc2)c2ccccc2)cc1`, the T/C (dose: 75.0 mg/kg/injection, schedule: Q01DX001 (ip), vehicle: acetone) is 95 % of control.
Turning to `CCCC(=O)Nc1cc2c3c(c1)CCCN3CCC2`, the T/C (dose: 50.0 mg/kg/injection, schedule: Q01DX009 (ip), vehicle: saline with Tween-80) is 96 % of control.
As for `O=C(O)c1nccc2c(O)cccc12`, the T/C is 93 % of control (dose: 100.0 mg/kg/injection, schedule: Q04DX003 (ip), vehicle: saline); 102 % of control (dose: 200.0 mg/kg/injection, schedule: Q04DX003 (ip), vehicle: saline); 101 % of control (dose: 400.0 mg/kg/injection, schedule: Q04DX003 (ip), vehicle: saline).
On to `CC[C@H](/C=C/[C@@H](C)[C@H]1CC[C@H]2[C@@H]3CC=C4C[C@@H](OC(=O)/C=C\C(=O)O)CC[C@]4(C)[C@H]3CC[C@]12C)C(C)C`, for which the T/C runs as follows: (dose: 12.5 mg/kg/injection, schedule: Q01DX009 (ip), vehicle: water) 96 % of control; (dose: 25.0 mg/kg/injection, schedule: Q01DX009 (ip), vehicle: water) 86 % of control; (dose: 25.0 mg/kg/injection, schedule: Q04DX003 (ip), vehicle: other) 105 % of control; (dose: 50.0 mg/kg/injection, schedule: Q04DX003 (ip), vehicle: other) 92 % of control.
Consider `CCOc1ccc(NC(=O)C=O)cc1`, for which the T/C runs as follows: (dose: 100.0 mg/kg/injection, schedule: Q01DX009 (ip), vehicle: Klucel (hydroxypropylcellulose) (HPC)) 92 % of control; (dose: 100.0 mg/kg/injection, schedule: Q04DX003 (ip), vehicle: Klucel (hydroxypropylcellulose) (HPC)) 94 % of control; (dose: 200.0 mg/kg/injection, schedule: Q01DX009 (ip), vehicle: Klucel (hydroxypropylcellulose) (HPC)) 103 % of control; (dose: 200.0 mg/kg/injection, schedule: Q04DX003 (ip), vehicle: Klucel (hydroxypropylcellulose) (HPC)) 94 % of control; (dose: 400.0 mg/kg/injection, schedule: Q01DX009 (ip), vehicle: Klucel (hydroxypropylcellulose) (HPC)) 105 % of control; (dose: 400.0 mg/kg/injection, schedule: Q04DX003 (ip), vehicle: Klucel (hydroxypropylcellulose) (HPC)) 97 % of control.
With `CC(C)(C)C(=O)C1C(=O)c2ccccc2C1=O`, the T/C was 101 % of control (dose: 0.25 mg/kg/injection, schedule: Q01DX009 (ip), vehicle: Klucel (hydroxypropylcellulose) (HPC)); 95 % of control (dose: 0.25 mg/kg/injection, schedule: Q04DX003 (ip), vehicle: Klucel (hydroxypropylcellulose) (HPC)); 95 % of control (dose: 0.5 mg/kg/injection, schedule: Q01DX009 (ip), vehicle: Klucel (hydroxypropylcellulose) (HPC)); 101 % of control (dose: 0.5 mg/kg/injection, schedule: Q04DX003 (ip), vehicle: Klucel (hydroxypropylcellulose) (HPC)); 104 % of control (dose: 1.0 mg/kg/injection, schedule: Q01DX009 (ip), vehicle: Klucel (hydroxypropylcellulose) (HPC)); 100 % of control (dose: 1.0 mg/kg/injection, schedule: Q04DX003 (ip), vehicle: Klucel (hydroxypropylcellulose) (HPC)).
In the case of `O=C1N(c2ccccc2)C(c2ccc([N+](=O)[O-])cc2)C1(c1ccccc1)c1ccccc1` (stereo not given), the T/C is 96 % of control (dose: 100.0 mg/kg/injection, schedule: Q04DX003 (ip), vehicle: gum acacia); 89 % of control (dose: 200.0 mg/kg/injection, schedule: Q04DX003 (ip), vehicle: gum acacia); 96 % of control (dose: 400.0 mg/kg/injection, schedule: Q04DX003 (ip), vehicle: gum acacia).
With `COc1ccc(C(CCCC(=O)O)C(CC(=O)O)C(=O)O)cc1` (stereo not given), the T/C is, setting by setting: (dose: 75.0 mg/kg/injection, schedule: Q04DX003 (ip), vehicle: saline) 96 % of control; (dose: 150.0 mg/kg/injection, schedule: Q04DX003 (ip), vehicle: saline) 103 % of control; (dose: 300.0 mg/kg/injection, schedule: Q04DX003 (ip), vehicle: saline) 112 % of control.
Take `O=C(CC(=O)OCc1ccc([N+](=O)[O-])cc1)OCc1ccc([N+](=O)[O-])cc1`: the T/C is, setting by setting: (dose: 25.0 mg/kg/injection, schedule: Q01DX001 (ip), vehicle: Klucel (hydroxypropylcellulose) (HPC)) 104 % of control; (dose: 50.0 mg/kg/injection, schedule: Q01DX001 (ip), vehicle: Klucel (hydroxypropylcellulose) (HPC)) 95 % of control; under setting [1], 92 % of control.
With `Cc1cnc2c(Nc3ccc(Cl)cc3)cc(N)nc2n1`, the T/C reads like this: (dose: 12.5 mg/kg/injection, schedule: Q01DX001 (ip), vehicle: other) 94 % of control; (dose: 25.0 mg/kg/injection, schedule: Q01DX001 (ip), vehicle: other) 96 % of control; (dose: 25.0 mg/kg/injection, schedule: Q04DX003 (ip), vehicle: Klucel (hydroxypropylcellulose) (HPC)) 96 % of control; (dose: 50.0 mg/kg/injection, schedule: Q01DX001 (ip), vehicle: other) 94 % of control and 105 % of control; (dose: 50.0 mg/kg/injection, schedule: Q01DX009 (ip), vehicle: Klucel (hydroxypropylcellulose) (HPC)) 94 % of control; (dose: 50.0 mg/kg/injection, schedule: Q04DX003 (ip), vehicle: Klucel (hydroxypropylcellulose) (HPC)) 101 % of control.
`CCC(C)C(C=O)(CCN(C)CC)c1cccc2ccccc12` (stereo not given): the T/C (dose: 25.0 mg/kg/injection, schedule: Q04DX002 (ip), vehicle: saline with Tween-80) was 91 % of control and the T/C (dose: 50.0 mg/kg/injection, schedule: Q04DX002 (ip), vehicle: saline with Tween-80) is 94 % of control.
`NC(=S)c1nn(C2OC(CO)C(O)C2O)c2ncnc(N)c12` (stereo not given): the T/C reads like this: (dose: 0.78 mg/kg/injection, schedule: Q01DX009 (ip), vehicle: saline) 122 % of control; (dose: 3.12 mg/kg/injection, schedule: Q01DX009 (ip), vehicle: saline) 173 % of control; (dose: 6.25 mg/kg/injection, schedule: Q01DX009 (ip), vehicle: saline) 89 % of control.
Regarding `C[N+]1(C)CCC2=CC3C=CC2C1C=C3` (stereo not given), the T/C (dose: 12.5 mg/kg/injection, schedule: Q01DX009 (ip), vehicle: saline) is 95 % of control; the T/C (dose: 25.0 mg/kg/injection, schedule: Q01DX009 (ip), vehicle: saline) is 93 % of control; the T/C (dose: 50.0 mg/kg/injection, schedule: Q01DX009 (ip), vehicle: saline) was 90 % of control.
Take `CCOc1ccccc1NCN1C(=O)c2ccccc2C1=O`: the T/C reads like this: (dose: 100.0 mg/kg/injection, schedule: Q01DX009 (ip), vehicle: saline with Tween-80) 90 % of control; (dose: 200.0 mg/kg/injection, schedule: Q04DX002 (ip), vehicle: saline with Tween-80) 223 % of control; (dose: 400.0 mg/kg/injection, schedule: Q04DX002 (ip), vehicle: saline with Tween-80) 91 % of control.
